Experimental findings from patent publication US20120264755A1, “PYRIDINYL DERIVATIVES AS INHIBITORS OF ENZYME NICOTINAMIDE PHOSPHORIBOSYLTRANSFERASE” (TopoTarget, priority 2009, published 2012) are described below.

A word on the IC50: it is the concentration that inhibits the measured activity by half.

Structures can show the parent of a compound that is named as a salt.

The test system of this experiment is A2780 cells. The experiment is described as follows: In vitro cell proliferation assay (WST-1 assay). The experiment is classed as cell-based. Conditions: Homo sapiens, total incubation time 72 h, WST-1 readout. As to the method: A2780 cells were seeded in 96-well plates at 3×10^3 cells/well in 100 μL of culture medium, 8 wells were left empty for media only controls.
After 24 h the compound titrations were performed, in a separate dilution plate, by serially diluting the compounds of general formula (I) in culture medium. A 100 μL of each dilution was added to the plated cells, this was done in triplicate, and controls (e.g. DMSO and blanks) were included. The plates were incubated for 24 h at 37° C. in a CO2 incubator. The compound titrations were repeated in a separate dilution plate after 24 h. The media plus compound from the assay plates were then aspirated. A 100 μL of media was then added to all wells, followed by 100 μL of each compound dilution. The plates were incubated for a further 48 h at 37° C. in a CO2 incubator (total incubation time 72 h). The number of viable cells was then assessed using Cell Proliferation Reagent WST-1. 10 μL of WST-1 reagent added to each well and incubated for one to four hours at 37° C. in CO2 incubator. The absorbance was measured (450 nm/690 nm).
The activity of compounds of general formula (I) in reducing the number of viable cells was calculated as:
% activity=[(S^c−B)/(S^o−B)]×100
S^c denotes signal measured in the presence of test compound, S^o denotes signal detected in the absence of compound, and B denotes background signal, measured in blank wells containing medium only. Analyse data using GraphPad Prism.
For orientation: Formazan colour is commonly taken as a measure of viable cells.

Turning to `O=C(NCCCCCCCN(OC1CCCCO1)S(=O)(=O)Cc1ccccc1)NCc1cccnc1` (centres unmarked) [Compound 1057, 1-Phenyl-N-(7-(3-(pyridin-3-ylmethyl)ureido)heptyl)-N-(tetrahydro-2H-pyran-2-yloxy)methanesulfonamide], inhibition was half-maximal at 0.37 nM (IC50).
As for `O=C(NCCCCCCCN(CCCN1CCOCC1)S(=O)(=O)C1CCCC1)NCc1cccnc1` [Compound 1015, N-(3-morpholinopropyl)-N-(7-(3-(pyridin-3-ylmethyl)ureido)heptyl) cyclopentanesulfonamide], 0.1 nM corresponded to half-maximal inhibition (IC50).
Next, `N#C/N=C(\NCCCCCCCCN(CCCN1CCOCC1)C(=O)c1ccccc1)Nc1ccncc1` [Compound 1071, N-(8-(2-cyano-3-(pyridin-4-yl)guanidino)octyl)-N-(3-morpholinopropyl)benzamide]: 0.049 nM; `N#C/N=C(\NCCCCCCCCN(CCCN1CCOCC1)C(=O)c1ccccc1)Nc1cccnc1` [Compound 1076, N-(8-(2-cyano-3-(pyridin-3-yl)guanidino)octyl)-N-(3-morpholinopropyl)benzamide]: 0.075 nM.
For `CCN(CCCCCCCCNC(=O)NCc1cccnc1)OCc1ccccc1` [Compound 1081, 1-(8-(benzyloxy(ethyl)amino)octyl)-3-(pyridin-3-ylmethyl)urea oxalate], the IC50 was 0.55 nM.
Next, `N#C/N=C(\NCCCCCCCCN(CCCN1CCOCC1)C1CCCCC1)Nc1ccncc1` [Compound 1001]: 0.49 nM; `N#C/N=C(\NCCCCCCCCN(CCCN1CCOCC1)C(=O)NC1CCCCC1)Nc1ccncc1` [Compound 1093, 1-(8-(2-cyano-3-(pyridin-4-yl)guanidino)octyl)-3-cyclohexyl-1-(morpholinopropyl)urea]: 0.063 nM.
Consider `CS(=O)(=O)N(CCCCCCN/C(=N\C#N)Nc1ccncc1)OCC1CCCCC1` [Compound 1112, N-(6-(2-cyano-3-(pyridin-4-yl)guanidino)hexyl)-N-(cyclohexylmethoxy)methanesulfonamide], for which the IC50 is 0.086 nM.
Next, `CNC(=S)N(CCCCCCN/C(=N\C#N)Nc1ccncc1)OCC1CCCCC1` [Compound 1116, 1-(6-(2-cyano-3-(pyridin-4-yl)guanidino)hexyl)-1-(cyclohexylmethoxy)-3-methylthiourea]: 0.056 nM; `O=C(/C=C/c1cccnc1)NCCCCCCCN(OC1CCCCO1)S(=O)(=O)Cc1ccccc1` (centres unmarked) [Compound 1058, (E)-N-(7-(1-phenyl-N-(tetrahydro-2H-pyran-2-yloxy)methylsulfonamido)heptyl)-3-(pyridin-3-yl)acrylamide]: 0.39 nM; `O=c1c(NCCCCCCCN(CCF)S(=O)(=O)C2CCCCC2)c(Nc2ccncc2)c1=O` [Compound 1099, N-(7-(3,4-dioxo-2-(pyridin-4-ylamino)cyclobut-1-enylamino)heptyl)-N-(2-fluoroethyl)cyclohexanesulfonamide]: 0.43 nM.
Next, `O=C(NCCCCCCN(CCCN1CCOCC1)S(=O)(=O)C1CCCC1)NCc1cccnc1` [Compound 1046]: 0.38 nM.
Next, `CC(C)NC(=O)N(CCCCCCN/C(=N\C#N)Nc1ccncc1)OCC1CCCCC1` [Compound 1115, 1-(6-(2-cyano-3-(pyridin-4-yl)guanidino)hexyl)-1-(cyclohexylmethoxy)-3-isopropylurea]: 0.033 nM.
Molecule `CC(C)S(=O)(=O)N(CCCCCCCCN/C(=N\C#N)Nc1ccncc1)OCc1ccccc1` [Compound 1024] displayed an IC50 of 0.047 nM. This IC50 and that of the molecule before are within 1.5-fold of each other.
For `N#C/N=C(\NCCCCCCCCN(CCF)S(=O)(=O)C1CCCCC1)Nc1ccncc1` [Compound 1103], the IC50 was 0.005 nM.
Next, `O=c1c(NCCCCCCCCN(CCCN2CCOCC2)S(=O)(=O)C2CCCC2)c(Nc2ccncc2)c1=O` [Compound 1016, N-(8-(3,4-dioxo-2-(pyridin-4-ylamino)cyclobut-1-enylamino)octyl)-N-(3-morpholinopropyl)cyclopentanesulfonamide]: 0.44 nM; `N#C/N=C(\NCCCCCCCN(OC1CCCCO1)S(=O)(=O)Cc1ccccc1)Nc1ccncc1` (centres unmarked) [Compound 1055]: 0.025 nM; `N#C/N=C(\NCCCCCCNOCC1CCCCC1)Nc1ccncc1` [Compound 1110, 2-cyano-1-(8-(cyclohexylmethoxyamino)hexyl)-3-(pyridin-4-yl)guanidine]: 0.015 nM.
Next, `N#C/N=C(\NCCCCCCCCNOCC1CCCCC1)Nc1ccncc1` [Compound 1107, 2-cyano-1-(8-(cyclohexylmethoxyamino)octyl)-3-(pyridin-4-yl)guanidine]: 0.57 nM; `CCS(=O)(=O)N(CCCCCCCN/C(=N\C#N)Nc1ccncc1)OCC1CCCCC1` [Compound 1060, N-(7-(2-cyano-3-(pyridin-4-yl)guanidino)heptyl)-N-(cyclohexylmethoxy)ethanesulfonamide]: 0.049 nM.
`CCN(CCCCCCCCN/C(=N\C#N)Nc1ccncc1)OCCN1CCOCC1` [Compound 1086, 2-Cyano-1-(8-(ethyl(2-morpholinoethoxy)amino)octyl)-3-(pyridin-4-yl)guanidine oxalate]: the IC50 came to 0.024 nM.
Next, `O=C(NCCCCCCCCN(CCCN1CCOCC1)S(=O)(=O)C1CCCCC1)NCc1cccnc1` [Compound 1013, N-(3-morpholinopropyl)-N-(8-(3-(pyridin-3-ylmethyl)ureido)octyl)cyclohexanesulfonamide]: 0.025 nM.
`CS(=O)(=O)N(CCCCCCCCNC(=O)NCc1cccnc1)OCc1ccccc1` [Compound 1022] returned an IC50 of 0.8 nM.
Next, `CP(C)(=O)N(CCCCCCCCN/C(=N\C#N)Nc1ccncc1)CCCN1CCOCC1` [Compound 1088, 2-Cyano-1-(8-((dimethylphosphoryl)(3-morpholinopropyl)amino)octyl)-3-(pyridin-4-yl)guanidine]: 5.65 nM; `N#C/N=C(\NCCCCCCCCN(CCCN1CCOCC1)C(=S)Nc1ccccc1)Nc1ccncc1` [Compound 1094, 1-(8-(2-cyano-3-(pyridin-4-yl)guanidino)octyl)-1-(3-morpholinopropyl)-3-Phenylthiourea]: 0.036 nM.
Next, `O=C(NCCCCCCCCN(CCCN1CCOCC1)S(=O)(=O)c1ccccc1)NCc1cccnc1` [Compound 1037]: 0.002 nM; `CCS(=O)(=O)N(CCCCCCCNc1c(Nc2ccncc2)c(=O)c1=O)OCC1CCCCC1` [Compound 1061, N-(cyclohexylmethoxy)-N-(7-(3,4-dioxo-2-(pyridin-4-ylamino)cyclobut-1-enylamino)heptyl)ethanesulfonamide]: 0.35 nM.
Next, `N#C/N=C(\NCCCCCCN(CCCN1CCOCC1)C1CCCCC1)Nc1ccncc1` [Compound 1003, 2-cyano-1-(6-(cyclohexyl(3-morpholinopropyl)amino)hexyl)-3-(pyridin-4-yl)guanidine]: 11.2 nM; `N#C/N=C(\NCCCCCCCN(CCF)S(=O)(=O)C1CCCCC1)Nc1ccncc1` [Compound 1098, N-(7-(2-cyano-3-(pyridin-4-yl)guanidino)heptyl)-N-(2-fluoroethyl)cyclohexansylfonamide]: 0.07 nM; `CS(=O)(=O)N(CCCCCCCCNC(=O)/C=C/c1cccnc1)CCCN1CCOCC1` [Compound 1033, N-(8-(N-(3-morpholinopropyl)methylsulfonamido)octyl)-3-(pyridin-3-yl)acrylamide]: 1.17 nM.
Turning to `O=C(NCCCCCCCCN(CCCN1CCOCC1)S(=O)(=O)C1CCCC1)NCc1cccnc1` [Compound 1012, N-(3-morpholinopropyl)-N-(8-(3-(pyridin-3-ylmethyl)ureido)octyl)cyclopentanesulfonamide], the IC50 is 0.09 nM.
As to `CCS(=O)(=O)N(CCCCCCCNC(=O)Nc1ccncc1)OCC1CCCCC1` [Compound 1064, N-(cyclohexylmethoxy)-N-(7-(3-(pyridin-4-yl)ureido)heptyl)ethanesulfonamide], the IC50 is 0.44 nM.
Next, `N#C/N=C(\NCCCCCCCN(CCCN1CCOCC1)S(=O)(=O)C1CCCC1)Nc1ccncc1` [Compound 1011, N-(7-(2-cyano-3-(pyridin-4-yl)guanidino)heptyl)-N-(3-morpholinopropyl)cyclopentanesulfonamide]: 0.003 nM; `CC(C)S(=O)(=O)N(CCCCCCCCNC(=O)Nc1ccncc1)OCc1ccccc1` [Compound 1028, N-(Benzyloxy)-N-(8-(3-pyridin-4-ylureido)octyl)propane-2-sulfonamide]: 0.37 nM.
Molecule `CS(=O)(=O)N(CCCCCCCCN/C(=N\C#N)Nc1ccncc1)OCC1CCCCC1` [Compound 1124, N-(8-(2-cyano-3-(pyridin-4-yl)guanidino)octyl)-N-(cyclohexylmethoxy)methanesulfonamide] came in with an IC50 of 0.15 nM.
Next, `O=C(c1ccccc1)N(CCCCCCCCNc1c(Nc2ccncc2)c(=O)c1=O)CCCN1CCOCC1` [Compound 1072, N-(8-(3,4-dioxo-2-(pyridin-4-ylamino)cyclobut-1-enylamino)octyl)-N-(3-morpholinopropyl)benzamide]: 0.17 nM; `CS(=O)(=O)N(CCCCCCCCN/C(=N\C#N)Nc1ccncc1)OCc1ccccc1` [Compound 1020]: 0.018 nM; `CCNC(=O)N(CCCCCCCCN/C(=N\C#N)Nc1ccncc1)OCC1CCCCC1` [Compound 1125, 1-(8-(2-cyano-3-(pyridin-4-yl)guanidino)octyl)-N-(cyclohexylmethoxy)-3-ethylurea]: 0.057 nM.
